According to US20220220100A1 (SOLUTIA CANADA INC., priority 2019, published 2022):

Experiments:
Type in all cases: physicochemical
[1] = UV/Vis absorbance at 400 nm and Yellowness Index of the ring-open isomer; details: for Abs @ 400 nm, RO (Absorption of ring-open isomer at 400 nm): 2×10^−5 M solution, 1 cm pathlength cuvette
Text: In addition to the above, chromophores should have acceptable colour for both the ring-opened and ring-closed isomers. For example, the ring-open isomer of the chromophore should have a Yellowness Index (YI) of less than about 10 and an absorbance at 400 nm, as measured for a 2×10^−5 M solution in a 1 cm pathlength cuvette. For the ring-closed isomer of the chromophore, the lambda max should be between about 475 nm and 700 nm, tunable according to desired colour and number of chromophores in the composition.
(§1) UV/Vis spectra were obtained using an OceanOptics™ Spectrophotometer. A 2×10^−5 M solution of compound in solvent was prepared, and photofaded using visible light until absorption in the visible region of the spectrum stabilized. The sample was then irradiated with simulated sunlight (QSUN SS-150 Solar Simulator with xenon arc lamp) until the absorption spectrum stabilized. To obtain PSS in the presence of a UV blocking film, a second sample was prepared and irradiated as described, with a UV blocking film inserted in the light path when irradiating.

[2] = Oxidation potential of ring-closed and ring-open isomers; details: no unit printed in table (V relative to Ag/AgCl)
Text: In various embodiments, at a PSS, some of the chromophore will be in the ring-closed isomer, with a small, but non-zero portion of ring-open isomer. The oxidation potential of a ring-open isomer may be more anodic than the oxidation potential of a ring-closed isomer. Exposure to a potential that is too far beyond what is necessary to oxidize the ring-closed isomer may result in oxidation of the ring-open isomer, which may be irreversible and result in electrochemically-induced degradation of the chromophore.
Thus, in various embodiments, an anodic chromophore may have an oxidation potential of from about 0.4 V to 1.2 V for the ring-closed isomer and about 1.0 V to 2.5 V for the ring-open isomer relative to an Ag/AgCl reference electrode. In various embodiments, the oxidation potential for the ring-open isomer is about 250 mV more anodic than the oxidation potential for the ring-closed isomer. For example, the oxidation potential may be about 260 mV, about 280 mV, about 300 mV, about 320 mV, about 340 mV, about 360 mV, about 380 mV, about 400 mV, about 420 mV, about 440 mV, or about 460 mV more anodic than the oxidation potential for the ring-closed isomer.

[3] = Solubility in Rhodiasolv IRIS solvent; details: for Solubility in Rhodiasolv IRIS: Rhodiasolv IRIS (dimethyl-2-methyl glutarate), wt %; for Solubility (in words): relative to the methoxy parent chromophore
Text: A compound with greater solubility allows for a formulation or material with a greater concentration of coloured molecule to be incorporated into a composition. This may allow for increasing the contrast ratio for a compound with a lesser absorbance at PSS. Examples of solubilizing groups for the compound include alkoxy, ether, ester or siloxy groups. In various embodiments, compounds may be soluble in the solvent component at room temperature at about 6 wt %, 7 wt %, 8 wt %, 9 wt %, 10 wt % or greater for testing to determine whether a compound has application as an exterior glazing or optical filter. If the solubility of a compound in the solvent component is too low, then insufficient darkening may be achieved in the ring-closed configuration, depending on conditions of use for the compound.
Chromophore solutions in Rhodiasolv IRIS were prepared at 1 to 10 wt % loading. Solutions were prepared in a glovebox by charging the chromophore and Rhodiasolv IRIS to a trace-clean vial, and the solution was stirred on a hotplate at 90° C. for 2-24 hours. After cooling, the chromophore solution was injected into glass weathering cells and the fill and vent ports were sealed with a thin disc of Kalrez (FFKM Perfluorinated Elastomer) and secured with a clamp and set-screw. The weathering cells were filled and sealed inside the glove box.

[4] = Photostationary state (PSS) and lambda max under simulated sunlight (solar simulator); details: for PSS (Steady State): head of Table 3; for PSS (Steady State) / PSS (SS): absorbance at photostationary state, 2×10^−5 M solution; for λmax (nm): peak in the visible range, ring-closed (dark) state; for PSS (SS): simulated sunlight (solar simulator)
Text: The term “photostationary state” (PSS) refers to an equilibrium state of a compound or material where the rate of the ring closing (forward) reaction is equal to the rate of the ring-opening reaction, when irradiated with light in a given region of the spectrum. In other words, the ratio of the ring-open isomer to the ring-closed isomer is at an equilibrium. PSS may be expressed with reference to a light source, or with reference to a type of light, for example, QUV, Xenon-arc lamp, Q-SUN, natural or filtered sunlight, UV, VIS, IR, NIR, full spectrum or the like, or with reference to a particular wavelength or range of wavelengths, or in the presence or absence of a filter. Some ring-open and ring-closed isomers may undergo isomerization from one to the other in response to different wavelengths of light. If a wavelength of light is used where only one of the isomers absorbs, irradiation results in complete isomerization to the other form. 254 nm, 313 nm or 365 nm light are commonly used in studies of UV-absorbing isomers, but this may not be representative of the PSS under other light conditions that include the visible spectrum such as natural or simulated sunlight (“full spectrum” light) and/or with filters that block a portion of the UV component of the light. For example, in a ring-closed (dark) state, the magnitude of the maximum absorbance in the visible range may change with the light source (FIG. 1). The wavelength at this peak in the visible range may be referred to as lambda max, or λmax. […] When full spectrum light from a solar simulator (Xenon arc lamp) is used as a light source (line B), a balance is achieved between the ring-closed (dark) state induced by the UV component, and a ring-open (faded) state induced by the visible component of the light. Inclusion of a UV blocking layer in the light path (line A) may reduce the UV component of the light, and the ring-opening reaction induced by the visible light component becomes more prominent. […] Where desired, the ratio of ring-open and ring-closed isomers at a PSS may be quantified by ^1H NMR spectroscopy, such as described in U.S. Pat. No. 7,777,055. In various embodiments, compounds with an increased absorbance at a photostationary state (PSS), or increased contrast ratio, are an improvement over other diarylethene compounds. A compound with a greater absorbance in the visible range can be used in lesser quantities in a formulation or material to achieve a desired contrast ratio, whereas a compound with a lower absorbance at a PSS may need a higher concentration to achieve a desired contrast ratio.
Photostationary State (PSS)
as §1

| SMILES | YI (Yellowness Index) [1] | Abs @ 400 nm, RO (Absorption of ring-open isomer at 400 nm) [1] | RC [O] (oxidation potential of ring-closed isomer) [2] | RO [O] (oxidation potential of ring-open isomer) [2] | Solubility in Rhodiasolv IRIS [3] [%] | PSS (Steady State) [4] | λmax (nm) [4] [nm] | PSS (SS) [4] | Solubility (in words) [3] |
| --- | --- | --- | --- | --- | --- | --- | --- | --- | --- |
| COc1ccc2c(C3=C(c4cc(-c5ccc(C(C)(C)C)s5)sc4-c4ccc(C(C)(C)C)s4)C(F)(F)C(F)(F)C3(F)F)c(-c3ccc(C(C)(C)C)cc3)oc2c1 | 3.32 | 0.0809 | 1 | 1.38 | <3 | 0.255 | 575 | – | – |
| COc1cc2oc(-c3ccc(C(C)(C)C)cc3)c(C3=C(c4cc(-c5cc6c(s5)C(C)(C)CCC6(C)C)sc4-c4cc5c(s4)C(C)(C)CCC5(C)C)C(F)(F)C(F)(F)C3(F)F)c2cc1OC | 8.12 | 0.131 | 0.91 | 1.29 | <3 | – | 594 | 0.358 | – |
| COCCCOc1cc2oc(-c3ccc(C(C)(C)C)cc3)c(C3=C(c4cc(-c5cc(C(C)(C)C)cs5)sc4-c4cc(C(C)(C)C)cs4)C(F)(F)C(F)(F)C3(F)F)c2cc1OCCCOC | 4.29 | 0.103 | 0.95 | 1.39 | >10 | – | 594 | 0.319 | – |
| CC(C)(C)c1ccc(-c2oc3cc(OCCN4C(=O)CCC4=O)c(OCCN4C(=O)CCC4=O)cc3c2C2=C(c3cc(-c4cc(C(C)(C)C)cs4)sc3-c3cc(C(C)(C)C)cs3)C(F)(F)C(F)(F)C2(F)F)cc1 | 4.72 | 0.136 | 1.05 | 1.42 | >10 | – | 585 | 0.364 | – |
| COc1cc2oc(-c3ccc(C(C)(C)C)cc3)c(C3=C(c4cc(-c5ccc(C(C)(C)C)s5)sc4-c4ccc(C(C)(C)C)s4)C(F)(F)C(F)(F)C3(F)F)c2cc1OC [Chromophore S340, 2-(4-(tert-butyl)phenyl)-3-(2-(5,5″-di-tert-butyl-[2,2′:5′,2″-terthiophen]-3′-yl)-3,3,4,4,5,5-hexafluorocyclopent-1-en-1-yl)-5,6-dimethoxybenzofuran] | 5.61 | 0.128 | 0.95 | 1.35 | 7 | 0.417 | 591 | – | – |
| CC(C)(C)c1ccc(-c2oc3ccccc3c2C2=C(c3cc(-c4ccc(C(C)(C)C)s4)sc3-c3ccc(C(C)(C)C)s3)C(F)(F)C(F)(F)C2(F)F)cc1 [Chromophore S343, 2-(4-(tert-butyl)phenyl)-3-(2-(5,5″-di-tert-butyl-[2,2′:5′,2″-terthiophen]-3′-yl)-3,3,4,4,5,5-hexafluorocyclopent-1-en-1-yl)benzofuran] | 4.87 | 0.11 | 1.1 | 1.37 | <1 | 0.315 | 573 | – | – |
| COc1ccc2oc(-c3ccc(C(C)(C)C)cc3)c(C3=C(c4cc(-c5ccc(C(C)(C)C)s5)sc4-c4ccc(C(C)(C)C)s4)C(F)(F)C(F)(F)C3(F)F)c2c1 [Chromophore S344, 2-(4-(tert-butyl)phenyl)-3-(2-(5,5″-di-tert-butyl-[2,2′:5′,2″-terthiophen]-3′-yl)-3,3,4,4,5,5-hexafluorocyclopent-1-en-1-yl)-5-methoxybenzofuran] | 2.91 | 0.1 | 1.05 | 1.36 | <3 | 0.337 | 583 | – | – |
| COCCOc1cc2oc(-c3ccc(C(C)(C)C)cc3)c(C3=C(c4cc(-c5ccc(C(C)(C)C)s5)sc4-c4ccc(C(C)(C)C)s4)C(F)(F)C(F)(F)C3(F)F)c2cc1OCCOC [Chromophore S364, 2-(4-(tert-butyl)phenyl)-3-(2-(5,5″-di-tert-butyl-[2,2′:5′,2″-terthiophen]-3′-yl)-3,3,4,4,5,5-hexafluorocyclopent-1-en-1-yl)-5,6-bis(2-methoxyethoxy)benzofuran] | 4.21 | 0.105 | 0.93 | 1.32 | >10 | 0.427 | 593 | – | improved |
| CC(=O)Oc1cc2oc(-c3ccc(C(C)(C)C)cc3)c(C3=C(c4cc(-c5ccc(C(C)(C)C)s5)sc4-c4ccc(C(C)(C)C)s4)C(F)(F)C(F)(F)C3(F)F)c2cc1OC(C)=O [Chromophore S367, 2-(4-(tert-butyl)phenyl)-3-(2-(5,5″-di-tert-butyl-[2,2′:5′,2″-terthiophen]-3′-yl)-3,3,4,4,5,5-hexafluorocyclopent-1-en-1-yl)benzofuran-5,6-diyl diacetate] | 5.47 | 0.102 | 1.12 | 1.38 | >10 | 0.32 | 583 | – | improved |
